{"source": "paper PMC11656837", "about": "“pH-Responsive Peptide Nanoparticles Deliver Macromolecules to Cells via Endosomal Membrane Nanoporation” (ACS Nano, 2024)", "test": "Particle size by quasielastic / dynamic light scattering", "assay_type": "physicochemical", "conditions": "QLS/DLS", "protocol": "To test this hypothesis, we next studied the C16-D-pHD108 particle size in solution using quasielastic light scattering (QLS). Samples of C16-D-pHD108 were dissolved in PBS with 138 mM NaCl, PBS with 69 mM NaCl, or PO4 buffer with no added salt. Most measurements were made at 25 μM peptides, but we tested concentrations between 25 and 200 μM peptides. Buffer without peptides gave a very low scattering intensity and no coherent particle peaks. […] Salt concentrations of 0, 69, and 138 mM had only small effects on the nanoparticle size. The median particle size for all samples was ∼120 nm. Particle size distributions for 25 μM C16-D-pHD108 are shown in Figure 8C at several salt concentrations for independently prepared samples. In Figure 8D, the light scattering intensity is shown to be a linear function of peptide concentration, with a Y-intercept at zero.\nDynamic light scattering was performed by using a Malvern Zetasizer Nano ZS90 DLS instrument. After HPLC purification, 10 nmol aliquots of C16-D-pHD108 were dried in silanized Eppendorf tubes. Peptide readily dissolved in PBS buffer and other aqueous buffers and remained stable in solution. For DLS samples, C16-D-pHD108 was dissolved in PBS with 138 mM NaCl, in PBS with 69 mM NaCl (50% of normal), or in a PO4 buffer with no added salt. Most measurements were made at 25 μM peptide, but we tested concentrations between 25 and 200 μM peptide. […]"}
{"smiles": "CCCCCCCCCCCCCCCC(=O)NCC(=O)N[C@@H](C(=O)NCC(=O)N[C@H](CCC(=O)O)C(=O)N[C@@H](C(=O)N[C@H](CC(C)C)C(=O)N[C@H](Cc1c[nH]cn1)C(=O)N[C@H](CCC(=O)O)C(=O)N[C@H](CC(C)C)C(=O)N[C@H](C)C(=O)N[C@H](CCC(=O)O)C(=O)NCC(=O)N[C@H](CC(C)C)C(=O)N1CCC[C@@H]1C(=O)N[C@H](CCC(=O)O)C(=O)N[C@H](CC(C)C)C(=O)N[C@H](CCC(N)=O)C(=O)N[C@H](CCC(=O)O)C(=O)N[C@H](Cc1c[nH]c2ccccc12)C(=O)N[C@@H](C(=O)N[C@H](Cc1c[nH]cn1)C(=O)N[C@H](C)C(=O)N[C@H](C)C(=O)N[C@H](CCC(N)=O)C(=O)N[C@H](CCC(N)=O)C(=O)N[C@H](CC(C)C)C(N)=O)[C@H](C)CC)C(C)C)[C@H](C)CC", "note": "[C16-D-pHD108]", "values": [{"measurement": "stability of particle size distributions", "setting": "after sample preparation, pH 7", "result": "stable up to a week"}, {"measurement": "median particle size / average diameter", "setting": "all samples, buffer pH 7", "result": "around 120 nm"}]}
